According to PMC6298432 (ACS chemical biology, 2017):

Tests used:
[1] = system: FolA (dihydrofolate reductase, DHFR); test: ALIS binding to FolA; design: species or system E. coli
[2] = system: mouse dihydrofolate reductase; conditions: cited from earlier work
[3] = system: Mycobacterium tuberculosis (Mtb); assay type: cell-based; conditions: active = ≥80% inhibition of bacterial growth
[4] = system: M. tuberculosis ATCC 27294; test: M. tuberculosis growth inhibition assay; assay type: cell-based
[5] = target: FolA (dihydrofolate reductase, DHFR); conditions: cited from earlier work
E. coli = test: Historical phenotypic screen for inhibitors of E. coli growth; assay type: cell-based; conditions: active = ≥80% inhibition of bacterial growth

| Compound | Binding to FolA detected in ALIS [1] | Inhibition of Mtb growth (antibacterial activity) [4] | Activity in E. coli growth phenotypic screen (E. coli) | other results |
| --- | --- | --- | --- | --- |
| COc1cc(Cc2cnc(N)nc2N)cc(OC)c1Br [brodimoprim] | failure to detect their binding | – | – | – |
| C#CCN(Cc1cnc2nc(N)nc(N)c2n1)c1ccc(C(=O)N[C@@H](CCC(=O)O)C(=O)O)cc1 [10-PAP, 10-propargylaminopterin] | – | retained bioactivity | – | Inhibition of mouse dihydrofolate reductase [2]: inhibit; Activity in Mtb growth phenotypic screen [3]: active |
| CN(Cc1cnc2nc(N)nc(N)c2n1)c1ccc(C(=O)N[C@@H](CCC(=O)O)C(=O)O)cc1 [Methotrexate] | – | no efficacy | – | – |
| COc1ccc(Cc2cnc(N)nc2N)cc1OC [Diaveridine] | binders detected | – | active | IC50 for FolA [5]: nanomolar |
| COc1cc(Cc2cnc(N)nc2N)cc(OC)c1OC [Trimethoprim] | – | – | active | – |
